Measurements published in patent publication US20210078958A1, “QUINAZOLINE DERIVATIVE AND USE THEREOF” (MEDSHINE DISCOVERY INC., priority 2017, published 2021).

Assays:
[1] = biological target: HER1 (ErbB1) (Homo sapiens, UniProt P00533); assay: in vitro enzyme activity, HER1 (ErbB1); format: biochemical; conditions: human ErbB1, [γ-33P]ATP, poly(Glu, Tyr) substrate
Experimental: (§1) The purpose of this assay is to detect the in vitro inhibitory activity of compounds on HER1 (ErbB1), HER2 (ErbB2), and HER4 (ErbB4). The enzymes used in this assay are human ErbB1, ErbB2 and ErbB4. Eurofins Pharma Discovery Service provided the method for activity detection.
(§2) Steps and Method of the Assay (96-Well Plate):
(§3) A buffer solution of the test compounds in a dilution of 5-fold (5 μL), polypeptide substrate poly(Glu, Tyr) (4:1) (2.5 μL), ErbB (4-20 ng, 2.5 μL), MnCl2 (50 mM, 1.25 μL), dH2O (3.75 μL), and [γ-^33P]ATP (10 μL) were added, and incubated at 30° C. for 10 minutes. The reaction was terminated by adding 3% phosphoric acid. 10 μL of the sample was taken and transferred to Filtermate A. The filter disc was washed 3 times with 75 mM phosphoric acid and once with methanol. The filter disc was transferred to a sealed plastic bag and the scintillation mixture (4 mL) was added. The intensity of the emitted photon was detected by a scintillation luminescence counter. The CPM (times/min) of the enzyme sample was compared with the CPM of the internal control sample. The level of photon intensity reflected the degree of the tyrosine kinase activity.

[2] = tested on: OE19 cells; assay: CTG assay of OE19 cells; format: cell-based; conditions: Homo sapiens, 72 hours of cell culture, Cell Titer Glo
Experimental: OE19 cells with saturation of 80%-90% were digested with trypsin, centrifuged, resuspended and counted. The concentration of cells was adjusted to […]. OE19 cells were added to a 96-well cell culture plate to 8000 OE19 cells per well. The cells were cultured in a cell incubator containing 5% CO2 at 37° C. overnight.
The stock solution of the test compounds was serially 3-fold diluted with DMSO to a total of 10 concentrations. Before the start of the assay, the serially diluted test compounds were further diluted to 10× compound solutions (the compound with a highest concentration contains 1% DMSO) with cell culture medium under sterile conditions. The prepared 10× compound solutions were added to the cell culture plate, and the 10 μL compound solution was added to each well. In this way, the final concentrations of staurosporine as the standard control and all the test compounds were obtained starting from […] as the initial concentration in a 3-fold serial dilution to get 10 test concentrations.
After 72 hours of cell culture, the 96-well cell culture plate was taken out. Cell Titer Glo reagent was added at […], mixed, centrifuged, and incubated at room temperature in the dark for 10 minutes. The cell plate was placed in Envision for reading.
The inhibition rate was calculated according to original data as follows:
Inhibition %=(ZPE−sample detection value)/(ZPE−HPE)×100%
The well containing 10 mM staurosporine on DAY3 (the first day of the assay is the day when compounds were added, and DAY3 is the day when reading is perfomed) was used as the HPE (100% inhibition control) well, and the well containing 0.1% DMSO on DAY3 was used as the ZPE (0% inhibition control) well. Each concentration of test compounds was tested in duplicate.
Non-linear regression analysis was performed using the processed data and GraphPad Prism 6 analysis software to obtain a dose-response curve, and the half-inhibitory concentration (IC50) of the test compounds on OE19 cells was calculated.

[3] = biological target: HER2 (ErbB2) (Homo sapiens, UniProt P04626); assay: in vitro enzyme activity, HER2 (ErbB2); format: biochemical; conditions: human ErbB2, [γ-33P]ATP, poly(Glu, Tyr) substrate
HER2 (ErbB2), sequence (P04626 23-1255): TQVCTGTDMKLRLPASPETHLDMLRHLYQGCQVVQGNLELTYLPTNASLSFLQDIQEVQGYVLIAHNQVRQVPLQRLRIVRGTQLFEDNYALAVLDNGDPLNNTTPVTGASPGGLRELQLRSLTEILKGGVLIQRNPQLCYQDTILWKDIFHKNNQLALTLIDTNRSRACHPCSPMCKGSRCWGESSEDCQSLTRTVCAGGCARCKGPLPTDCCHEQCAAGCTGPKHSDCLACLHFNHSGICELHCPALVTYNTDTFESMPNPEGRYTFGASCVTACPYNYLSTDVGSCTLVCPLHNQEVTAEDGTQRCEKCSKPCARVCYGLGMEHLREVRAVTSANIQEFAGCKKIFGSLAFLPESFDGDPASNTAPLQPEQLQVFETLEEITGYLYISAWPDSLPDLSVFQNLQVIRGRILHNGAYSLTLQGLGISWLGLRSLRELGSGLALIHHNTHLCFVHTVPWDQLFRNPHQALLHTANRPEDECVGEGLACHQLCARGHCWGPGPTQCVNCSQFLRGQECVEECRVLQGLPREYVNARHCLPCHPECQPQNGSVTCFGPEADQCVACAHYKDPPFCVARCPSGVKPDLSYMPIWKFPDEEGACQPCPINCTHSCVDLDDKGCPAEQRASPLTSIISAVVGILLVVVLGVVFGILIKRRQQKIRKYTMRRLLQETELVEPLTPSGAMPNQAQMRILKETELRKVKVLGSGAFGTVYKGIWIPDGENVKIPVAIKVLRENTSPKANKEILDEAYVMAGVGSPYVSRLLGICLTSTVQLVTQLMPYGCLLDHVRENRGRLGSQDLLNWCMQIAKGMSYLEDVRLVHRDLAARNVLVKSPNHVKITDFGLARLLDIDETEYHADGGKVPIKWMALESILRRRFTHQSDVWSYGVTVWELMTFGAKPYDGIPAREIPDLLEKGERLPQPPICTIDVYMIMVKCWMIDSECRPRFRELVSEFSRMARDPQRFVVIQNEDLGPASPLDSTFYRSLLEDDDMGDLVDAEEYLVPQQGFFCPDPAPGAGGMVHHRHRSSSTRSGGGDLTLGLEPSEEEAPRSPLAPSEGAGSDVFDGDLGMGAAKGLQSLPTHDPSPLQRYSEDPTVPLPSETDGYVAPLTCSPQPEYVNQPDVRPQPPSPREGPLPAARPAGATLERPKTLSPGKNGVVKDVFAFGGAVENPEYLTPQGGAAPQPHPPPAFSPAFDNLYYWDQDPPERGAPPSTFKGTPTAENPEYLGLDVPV
Experimental: as §1, §2, §3

[4] = tested on: NCI-N87 cell; assay: inhibitory activity on cell proliferation (Cell-Titer-Glo), NCI-N87; format: cell-based; conditions: Homo sapiens, NCI-N87, 72 h; incubation for 3 days, Cell-Titer-Glo
Excerpt: Purpose of the assay: to detect the inhibitory activity of the test compounds on cell proliferation.
Principle of the assay: the luciferase in a Cell-Titer-Glo reagent produces oxidized luciferin with luciferin, oxygen and ATP as reaction substrates, and releases energy in the form of light. Since the luciferase reaction requires ATP, the total amount of light generated by the reaction is proportional to the total amount of ATP that reflects cell viability.
Cell Titer-Glo cell viability assay kit with luminescence (Promega #G7573)
According to the schematic diagram of the cell seed plate, cells were seeded in a 384- or 96-well plate at a density of 1000 cells per well and 25 μL per well, and 25 μL of PBS was added to the wells near edge of the place where no cells were seeded.
(1) The stock solution of the compounds has a concentration of 10 mM, and the compounds were diluted with DMSO to an initial concentration of 4 mM. The compounds were added to the plate with stock solution of compounds, 9 μL per well.
(2) The compounds were diluted with an ECHO liquid workstation, where 125 nL of compounds were added to each well of the cell plate, 125 nL of DMSO was added to each of the cell well in columns 2 and 23, and 125 nL of DMSO was added to each PBS well in columns 1 and 24.
2.3 After addition of the compounds, the cell plate was centrifuged at 1000 rpm for 1 min, and then placed in a 37° C., 5% CO2 incubator for incubation for 3 days.
The cell plate was taken out from the incubator and equilibrated at room temperature for 30 minutes. 25 μL of Cell-Titer-Glo reagent was added to each well, shaken for one minute to allow well mixed, and centrifuged at 1000 rpm for 1 minute. After 10 minutes, the plate was read on PerkinElmer Envision, and the […] reading time was set to 0.2 second.

[5] = biological target: T1, CYP2D6 (Homo sapiens, UniProt P10635); assay: inhibition of CYP enzyme activity in human liver microsome, CYP2D6; format: in vitro ADME
T1 construct: in the assay of CYP enzyme activity in human liver microsome; from tissue; host or cells: human liver microsome
T1 sequence (P10635 whole entry): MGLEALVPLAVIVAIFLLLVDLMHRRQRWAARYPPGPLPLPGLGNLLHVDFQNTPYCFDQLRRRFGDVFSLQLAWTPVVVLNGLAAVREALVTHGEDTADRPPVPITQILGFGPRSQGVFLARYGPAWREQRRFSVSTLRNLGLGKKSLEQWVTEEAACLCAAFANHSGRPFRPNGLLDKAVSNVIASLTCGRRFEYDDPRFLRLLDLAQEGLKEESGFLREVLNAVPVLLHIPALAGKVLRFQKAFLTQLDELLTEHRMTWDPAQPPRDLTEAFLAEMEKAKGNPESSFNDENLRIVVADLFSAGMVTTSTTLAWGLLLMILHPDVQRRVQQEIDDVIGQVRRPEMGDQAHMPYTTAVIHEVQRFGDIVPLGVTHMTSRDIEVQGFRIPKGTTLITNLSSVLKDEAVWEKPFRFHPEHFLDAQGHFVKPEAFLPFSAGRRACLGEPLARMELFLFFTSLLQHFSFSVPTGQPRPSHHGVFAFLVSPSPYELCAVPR
Excerpt: (§4) The results of the compounds disclosed herein and the reference compound Poziotinib in the assay of CYP enzyme activity in human liver microsome were shown in the following table (Table 8).

[6] = biological target: T2, CYP2C19 (Homo sapiens, UniProt P33261); assay: inhibition of CYP enzyme activity in human liver microsome, CYP2C19; format: in vitro ADME
T2 construct: in the assay of CYP enzyme activity in human liver microsome; from tissue; host or cells: human liver microsome
T2 sequence (P33261 whole entry): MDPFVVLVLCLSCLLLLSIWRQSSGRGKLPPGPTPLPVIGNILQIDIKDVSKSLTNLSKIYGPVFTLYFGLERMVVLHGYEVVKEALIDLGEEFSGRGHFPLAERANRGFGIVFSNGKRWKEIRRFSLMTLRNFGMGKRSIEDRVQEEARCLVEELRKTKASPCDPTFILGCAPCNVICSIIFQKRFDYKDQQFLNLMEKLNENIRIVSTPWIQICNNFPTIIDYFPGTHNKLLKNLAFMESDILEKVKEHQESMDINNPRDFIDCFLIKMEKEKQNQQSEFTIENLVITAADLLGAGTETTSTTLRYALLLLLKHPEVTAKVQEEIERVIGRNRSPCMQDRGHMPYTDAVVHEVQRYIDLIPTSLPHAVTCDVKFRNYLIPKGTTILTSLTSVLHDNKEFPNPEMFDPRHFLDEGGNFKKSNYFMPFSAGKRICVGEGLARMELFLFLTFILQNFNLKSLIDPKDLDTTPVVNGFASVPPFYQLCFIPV
Excerpt: as §4

[7] = biological target: T3, CYP2C9 (Homo sapiens, UniProt P11712); assay: inhibition of CYP enzyme activity in human liver microsome, CYP2C9; format: in vitro ADME
T3 construct: in the assay of CYP enzyme activity in human liver microsome; from tissue; host or cells: human liver microsome
T3 sequence (P11712 whole entry): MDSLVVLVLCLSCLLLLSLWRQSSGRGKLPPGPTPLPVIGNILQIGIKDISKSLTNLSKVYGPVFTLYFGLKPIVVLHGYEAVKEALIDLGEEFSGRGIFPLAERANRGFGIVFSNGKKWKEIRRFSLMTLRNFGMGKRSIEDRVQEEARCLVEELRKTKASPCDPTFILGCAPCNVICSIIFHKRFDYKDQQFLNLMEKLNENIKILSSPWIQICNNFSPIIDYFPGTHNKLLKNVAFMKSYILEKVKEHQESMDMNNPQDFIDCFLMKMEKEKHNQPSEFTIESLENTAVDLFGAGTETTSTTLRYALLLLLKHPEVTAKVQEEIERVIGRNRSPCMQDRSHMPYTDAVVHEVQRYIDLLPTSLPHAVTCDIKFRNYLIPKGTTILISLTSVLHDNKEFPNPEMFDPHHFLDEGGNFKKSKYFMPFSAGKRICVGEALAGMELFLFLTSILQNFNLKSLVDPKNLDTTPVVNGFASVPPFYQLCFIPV
Excerpt: as §4

HER1 (ErbB1), sequence (P00533 25-1210): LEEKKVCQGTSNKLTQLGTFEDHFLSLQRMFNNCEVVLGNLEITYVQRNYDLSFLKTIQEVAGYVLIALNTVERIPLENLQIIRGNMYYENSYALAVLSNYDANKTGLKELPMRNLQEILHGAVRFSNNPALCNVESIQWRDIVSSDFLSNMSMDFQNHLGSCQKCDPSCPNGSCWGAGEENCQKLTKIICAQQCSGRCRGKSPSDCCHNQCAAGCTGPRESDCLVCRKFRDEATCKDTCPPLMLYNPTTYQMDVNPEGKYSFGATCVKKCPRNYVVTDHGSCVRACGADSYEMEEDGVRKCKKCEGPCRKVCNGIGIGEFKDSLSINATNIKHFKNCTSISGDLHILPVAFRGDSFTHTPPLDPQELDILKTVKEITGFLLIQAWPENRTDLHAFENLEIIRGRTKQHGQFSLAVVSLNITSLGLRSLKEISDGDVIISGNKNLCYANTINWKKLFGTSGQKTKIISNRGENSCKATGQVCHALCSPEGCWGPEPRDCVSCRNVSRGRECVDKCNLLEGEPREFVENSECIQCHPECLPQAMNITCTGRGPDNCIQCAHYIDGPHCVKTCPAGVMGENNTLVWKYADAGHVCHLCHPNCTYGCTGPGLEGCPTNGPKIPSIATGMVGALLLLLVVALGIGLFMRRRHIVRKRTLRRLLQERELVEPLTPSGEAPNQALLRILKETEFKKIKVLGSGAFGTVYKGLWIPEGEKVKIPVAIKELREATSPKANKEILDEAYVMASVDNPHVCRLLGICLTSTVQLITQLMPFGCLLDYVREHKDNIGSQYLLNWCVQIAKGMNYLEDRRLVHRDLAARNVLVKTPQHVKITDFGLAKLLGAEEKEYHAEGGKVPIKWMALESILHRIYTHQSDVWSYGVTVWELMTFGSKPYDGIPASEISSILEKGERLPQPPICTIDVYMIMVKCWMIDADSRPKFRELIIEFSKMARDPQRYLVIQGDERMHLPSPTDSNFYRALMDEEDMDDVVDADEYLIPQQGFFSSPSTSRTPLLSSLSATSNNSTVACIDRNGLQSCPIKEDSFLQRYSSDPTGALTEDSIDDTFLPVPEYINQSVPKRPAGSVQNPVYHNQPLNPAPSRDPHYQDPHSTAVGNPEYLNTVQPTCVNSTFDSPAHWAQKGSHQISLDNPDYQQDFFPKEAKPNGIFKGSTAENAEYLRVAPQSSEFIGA

Row | SMILES | IC50 [1] | IC50 [2] | IC50 [3] | IC50 [4] | IC50 [5] | activity on CYP2D6, times better than that of the reference compound ([5]; versus Poziotinib) | IC50 [6] | inhibition of CYP enzyme CYP2C19 [6] | IC50 [7] | activity on CYP2C9, times better than that of the reference compound ([7]; versus Poziotinib)
1 | C=CC(=O)N1[C@@H]2CC[C@H]1C[C@H](Oc1cc3c(Nc4ccc(Cl)c(Cl)c4F)ncnc3cc1OC)C2 [Example 8] | 6 nM | 0.48 nM | 5.5 nM | 0.28 nM | – | – | – | – | – | –
2 | C=CC(=O)N1[C@@H]2CC[C@H]1C[C@H](Nc1cc3c(Nc4ccc(Cl)c(Cl)c4F)ncnc3cc1OC)C2 [Example 38] | 8 nM | 1.2 nM | 5 nM | 0.46 nM | 6000 nM | 6 times | 11000 nM | comparable to that of the reference compound Poziotinib | 16000 nM | 2 times
3 | C=CC(=O)N1CCC(Oc2cc3c(Nc4ccc(Cl)c(Cl)c4F)ncnc3cc2OC)CC1 [Poziotinib, reference compound] | – | – | – | – | 1000 nM | – | 12000 nM | – | 8000 nM | –
